Source: paper PMC5218480 (PLoS ONE, 2017)

Test system: MV-4-11 cells
Assay: Gene expression microarray analysis (Affymetrix PrimeView) and GSEA
Assay type: cell-based, human
Design: RFU PODN (11730768_x_at) / Fold change /veh PODN (11730768_x_at) / RFU LINC00158 (11744669_a_at) / Fold change /veh LINC00158 (11744669_a_at) / RFU DUSP10 (11751237_a_at) / Fold change /veh DUSP10 (11751237_a_at) / RFU ID3 (11757404_x_at) / Fold change /veh ID3 (11757404_x_at) / RFU PLEKHG5 (11737974_s_at) / Fold change /veh PLEKHG5 (11737974_s_at) / RFU LRRC4B (11730491_at) / Fold change /veh LRRC4B (11730491_at) / RFU GIMAP4 (11747438_a_at) / Fold change /veh GIMAP4 (11747438_a_at) / RFU KRT8 (11758183_x_at) / Fold change /veh KRT8 (11758183_x_at) / RFU CNN1 (11734310_a_at) / Fold change /veh CNN1 (11734310_a_at) / RFU VPS37D (11726825_at) / Fold change /veh VPS37D (11726825_at) / RFU C10orf10 (11716522_x_at) / Fold change /veh C10orf10 (11716522_x_at) / RFU KIR2DL2 /// KIR2DL4 /// KIR2DL5A /// KIR2DL5B /// KIR2DS1 /// KIR2DS2 /// KIR2DS3 /// KIR2DS4 /// KIR3DL3 /// KIR3DL3 /// KIR3DS1 (11738374_at) / Fold change /veh KIR2DL2 /// KIR2DL4 /// KIR2DL5A /// KIR2DL5B /// KIR2DS1 /// KIR2DS2 /// KIR2DS3 /// KIR2DS4 /// KIR3DL3 /// KIR3DL3 /// KIR3DS1 (11738374_at) / RFU C1QL1 (11718748_at) / Fold change /veh C1QL1 (11718748_at) / RFU TMPRSS4 (11747572_a_at) / Fold change /veh TMPRSS4 (11747572_a_at) / RFU HAMP (11756126_x_at) / Fold change /veh HAMP (11756126_x_at) / RFU RNFT2 (11725882_a_at) / Fold change /veh RNFT2 (11725882_a_at) / RFU NR4A2 (11747474_a_at) / Fold change /veh NR4A2 (11747474_a_at) / RFU ABCC12 (11746883_a_at) / Fold change /veh ABCC12 (11746883_a_at) / RFU TMEM136 (11760407_x_at) / Fold change /veh TMEM136 (11760407_x_at) / RFU CLDN22 /// WWC2 (11732394_at) / Fold change /veh CLDN22 /// WWC2 (11732394_at) / RFU HLA-DPB1 (11760878_x_at) / Fold change /veh HLA-DPB1 (11760878_x_at) / RFU SPINT1 (11716480_a_at) / Fold change /veh SPINT1 (11716480_a_at) / RFU GAP43 (11754022_s_at) / Fold change /veh GAP43 (11754022_s_at) / RFU A4GNT (11735810_at) / Fold change /veh A4GNT (11735810_at) / RFU PRB3 (11715151_x_at) / Fold change /veh PRB3 (11715151_x_at) / RFU TUBB4B (11761932_at) / Fold change /veh TUBB4B (11761932_at) / RFU CAPN14 (11732068_a_at) / Fold change /veh CAPN14 (11732068_a_at) / RFU TMCC2 (11721928_a_at) / Fold change /veh TMCC2 (11721928_a_at) / RFU IRGQ (11745062_a_at) / Fold change /veh IRGQ (11745062_a_at) / RFU FAM174B (11720279_a_at) / Fold change /veh FAM174B (11720279_a_at) / RFU TMPRSS4 (11748680_a_at) / Fold change /veh TMPRSS4 (11748680_a_at) / RFU FAM212B (11763350_a_at) / Fold change /veh FAM212B (11763350_a_at) / RFU PLEKHG5 (11743358_a_at) / Fold change /veh PLEKHG5 (11743358_a_at) / RFU ZSCAN30 (11745921_a_at) / Fold change /veh ZSCAN30 (11745921_a_at) / RFU CMKLR1 (11741424_a_at) / Fold change /veh CMKLR1 (11741424_a_at) / RFU LOC101060620 /// MAPK8IP1 (11723275_at) / Fold change /veh LOC101060620 /// MAPK8IP1 (11723275_at) / RFU SPTSSB (11747773_x_at) / Fold change /veh SPTSSB (11747773_x_at) / RFU PRSS12 (11739890_at) / Fold change /veh PRSS12 (11739890_at) / RFU BIN1 (11741810_x_at) / Fold change /veh BIN1 (11741810_x_at) / RFU WNT11 (11732464_a_at) / Fold change /veh WNT11 (11732464_a_at) / RFU C10orf10 (11716521_a_at) / Fold change /veh C10orf10 (11716521_a_at) / RFU C5orf56 (11738089_at) / Fold change /veh C5orf56 (11738089_at) / RFU CYB561 (11721691_x_at) / Fold change /veh CYB561 (11721691_x_at) / RFU ANKRD19P (11752326_a_at) / Fold change /veh ANKRD19P (11752326_a_at) / RFU OR2T12 /// OR2T33 /// OR2T8 (11738714_s_at) / Fold change /veh OR2T12 /// OR2T33 /// OR2T8 (11738714_s_at) / RFU VCAN (11748164_a_at) / Fold change /veh VCAN (11748164_a_at) / RFU JSRP1 (11732532_at) / Fold change /veh JSRP1 (11732532_at) / RFU KRTAP10-11 (11738290_x_at) / Fold change /veh KRTAP10-11 (11738290_x_at) / RFU MYO3A (11730013_a_at) / Fold change /veh MYO3A (11730013_a_at) / RFU EBF3 (11725865_a_at) / Fold change /veh EBF3 (11725865_a_at) / RFU CAMK2N1 (11719241_x_at) / Fold change /veh CAMK2N1 (11719241_x_at) / RFU C5orf56 (11738088_a_at) / Fold change /veh C5orf56 (11738088_a_at) / RFU OLFML3 (11715873_a_at) / Fold change /veh OLFML3 (11715873_a_at) / RFU LOC100653217 /// NTM (11731650_a_at) / Fold change /veh LOC100653217 /// NTM (11731650_a_at) / RFU MAPK11 (11762145_a_at) / Fold change /veh MAPK11 (11762145_a_at) / RFU FIZ1 (11724087_x_at) / Fold change /veh FIZ1 (11724087_x_at) / RFU OASL (11726364_x_at) / Fold change /veh OASL (11726364_x_at) / RFU SOX15 (11748057_x_at) / Fold change /veh SOX15 (11748057_x_at) / RFU CD79A (11719716_a_at) / Fold change /veh CD79A (11719716_a_at) / RFU HIST1H1D (11736915_at) / Fold change /veh HIST1H1D (11736915_at) / RFU CASKIN2 (11723855_a_at) / Fold change /veh CASKIN2 (11723855_a_at) / RFU LOC730098 (11760151_x_at) / Fold change /veh LOC730098 (11760151_x_at) / RFU OR4N2 (11742367_at) / Fold change /veh OR4N2 (11742367_at) / RFU PRRT2 (11749266_a_at) / Fold change /veh PRRT2 (11749266_a_at) / RFU SNX32 (11753110_a_at) / Fold change /veh SNX32 (11753110_a_at) / RFU CDHR5 (11726645_a_at) / Fold change /veh CDHR5 (11726645_a_at) / RFU RCAN1 (11760418_a_at) / Fold change /veh RCAN1 (11760418_a_at) / RFU FAM167A (11723789_a_at) / Fold change /veh FAM167A (11723789_a_at) / RFU FAM26E (11764081_at) / Fold change /veh FAM26E (11764081_at) / RFU ISYNA1 (11749810_s_at) / Fold change /veh ISYNA1 (11749810_s_at) / RFU ACY1 (11761880_at) / Fold change /veh ACY1 (11761880_at) / RFU 11764098_at / Fold change /veh 11764098_at / RFU SAMD14 (11745864_x_at) / Fold change /veh SAMD14 (11745864_x_at) / RFU NPB (11741838_a_at) / Fold change /veh NPB (11741838_a_at) / RFU TMPRSS6 (11731388_a_at) / Fold change /veh TMPRSS6 (11731388_a_at) / RFU KRTAP10-2 (11738614_at) / Fold change /veh KRTAP10-2 (11738614_at) / RFU ARHGAP8 /// PRR5-ARHGAP8 (11727945_x_at) / Fold change /veh ARHGAP8 /// PRR5-ARHGAP8 (11727945_x_at) / RFU KRTAP5-7 /// NADSYN1 (11734609_at) / Fold change /veh KRTAP5-7 /// NADSYN1 (11734609_at) / RFU RASL12 (11751679_a_at) / Fold change /veh RASL12 (11751679_a_at) / RFU CDKN2B (11736163_a_at) / Fold change /veh CDKN2B (11736163_a_at) / RFU PRF1 (11729649_at) / Fold change /veh PRF1 (11729649_at) / RFU, ZNF638 /// ZNF638-IT1 / Fold change vs veh, ZNF638 /// ZNF638-IT1 / RFU, PANK3 / Fold change vs veh, PANK3 / RFU, SH3YL1 / Fold change vs veh, SH3YL1 / RFU, ZEB2 / Fold change vs veh, ZEB2 / RFU, NRIP1 / Fold change vs veh, NRIP1 / RFU, PTTG1IP / Fold change vs veh, PTTG1IP / RFU, CAPN2 / Fold change vs veh, CAPN2 / RFU, MED14 / Fold change vs veh, MED14 / RFU, SNORA58 / Fold change vs veh, SNORA58 / RFU, C1orf63 / Fold change vs veh, C1orf63 / RFU, LRRFIP1 / Fold change vs veh, LRRFIP1 / RFU, NDUFAF7 / Fold change vs veh, NDUFAF7 / RFU, SLC12A2 / Fold change vs veh, SLC12A2 / RFU, IBTK / Fold change vs veh, IBTK / RFU, ESF1 / Fold change vs veh, ESF1 / Fold change vs veh, TMEM50B / RFU, TAOK1 / Fold change vs veh, TAOK1 / RFU, ACBD3 / Fold change vs veh, ACBD3 / RFU, TMA16 / Fold change vs veh, TMA16 / RFU, RWDD3 / Fold change vs veh, RWDD3 / RFU, BCAT1 / Fold change vs veh, BCAT1 / RFU, EDEM3 / Fold change vs veh, EDEM3 / RFU, TMEM33 / Fold change vs veh, TMEM33 / RFU, WDR75 / Fold change vs veh, WDR75 / RFU, AHCTF1 / Fold change vs veh, AHCTF1 / RFU, TFRC / Fold change vs veh, TFRC / RFU, ZDHHC17 / Fold change vs veh, ZDHHC17 / RFU, NOM1 / Fold change vs veh, NOM1 / RFU, ARL8B / Fold change vs veh, ARL8B / RFU, ZBTB11 / Fold change vs veh, ZBTB11 / RFU, TAMM41 / Fold change vs veh, TAMM41 / RFU, KIAA1704 /// LOC100996395 / Fold change vs veh, KIAA1704 /// LOC100996395 / RFU, ING1 / Fold change vs veh, ING1 / RFU, TRMT61B / Fold change vs veh, TRMT61B / RFU, FUBP3 / Fold change vs veh, FUBP3 / RFU, TP53 / Fold change vs veh, TP53 / RFU, TNKS2 / Fold change vs veh, TNKS2 / RFU, ZFP14 / Fold change vs veh, ZFP14 / RFU, ACTR2 / Fold change vs veh, ACTR2 / RFU, PPP3R1 / Fold change vs veh, PPP3R1 / RFU, PIK3R1 / Fold change vs veh, PIK3R1 / RFU, HNRNPA1 / Fold change vs veh, HNRNPA1 / RFU, RNF170 / Fold change vs veh, RNF170 / RFU, ZNF28 / Fold change vs veh, ZNF28 / RFU, RNGTT / Fold change vs veh, RNGTT / RFU, OGT / Fold change vs veh, OGT / RFU, BRD1 / Fold change vs veh, BRD1 / RFU, MARS / Fold change vs veh, MARS / RFU, ZNF655 / Fold change vs veh, ZNF655 / RFU, FAHD1 / Fold change vs veh, FAHD1 / RFU, BDP1 / Fold change vs veh, BDP1 / RFU, LRRCC1 / Fold change vs veh, LRRCC1 / RFU, ARID1A / Fold change vs veh, ARID1A / RFU, ZNF146 / Fold change vs veh, ZNF146 / RFU, ZNF330 / Fold change vs veh, ZNF330 / RFU, GPN3 / Fold change vs veh, GPN3 / RFU, C9orf123 / Fold change vs veh, C9orf123 / RFU, N4BP2L2 / Fold change vs veh, N4BP2L2 / RFU, ARFIP1 / Fold change vs veh, ARFIP1 / RFU, FAM179B / Fold change vs veh, FAM179B / RFU, BCL10 / Fold change vs veh, BCL10 / RFU, UHRF1BP1L / Fold change vs veh, UHRF1BP1L / RFU, BET1 / Fold change vs veh, BET1 / RFU, CNOT2 / Fold change vs veh, CNOT2 / RFU, ZNF268 / Fold change vs veh, ZNF268 / Fold change vs veh, ZNF507 / RFU, DGCR2 / Fold change vs veh, DGCR2 / RFU, WDSUB1 / Fold change vs veh, WDSUB1 / Fold change vs veh, HSP90B1 /// MIR3652 / RFU, ADSS / Fold change vs veh, ADSS / RFU, GK / Fold change vs veh, GK / RFU, ZNF148 / Fold change vs veh, ZNF148 / RFU, TAF9 / Fold change vs veh, TAF9 / RFU, SLC1A5 / Fold change vs veh, SLC1A5 / RFU, SLMO2 / Fold change vs veh, SLMO2 / RFU, ABCC4 / Fold change vs veh, ABCC4 / RFU, LOC101060439 /// RAP1B / Fold change vs veh, LOC101060439 /// RAP1B / RFU, RFX7 / Fold change vs veh, RFX7 / RFU, GTPBP10 / Fold change vs veh, GTPBP10 / RFU, CNEP1R1 / Fold change vs veh, CNEP1R1 / RFU, BIVM-ERCC5 /// ERCC5 / Fold change vs veh, BIVM-ERCC5 /// ERCC5 / RFU, ILF3 / Fold change vs veh, ILF3 / RFU 11762660_at / Fold change /veh 11762660_at / RFU VCAN (11757783_s_at) / Fold change /veh VCAN (11757783_s_at) / RFU DDX43 (11728927_at) / Fold change /veh DDX43 (11728927_at) / RFU KRT8 (11758188_x_at) / Fold change /veh KRT8 (11758188_x_at) / RFU NKD1 (11759106_at) / Fold change /veh NKD1 (11759106_at) / RFU SRD5A1 (11742802_a_at) / Fold change /veh SRD5A1 (11742802_a_at) / RFU TPSAB1 /// TPSB2 (11721975_s_at) / Fold change /veh TPSAB1 /// TPSB2 (11721975_s_at) / RFU GSTM3 (11746129_a_at) / Fold change /veh GSTM3 (11746129_a_at) / RFU IL23R (11737362_x_at) / Fold change /veh IL23R (11737362_x_at) / RFU TMEM51 (11727254_a_at) / Fold change /veh TMEM51 (11727254_a_at) / RFU PIWIL2 (11732686_x_at) / Fold change /veh PIWIL2 (11732686_x_at) / RFU ORM1 (11744905_x_at) / Fold change /veh ORM1 (11744905_x_at) / RFU CCDC152 (11743942_at) / Fold change /veh CCDC152 (11743942_at) / RFU ECM1 (11717891_a_at) / Fold change /veh ECM1 (11717891_a_at) / RFU IL23R (11748794_a_at) / Fold change /veh IL23R (11748794_a_at) / RFU TNFAIP8L3 (11732012_x_at) / Fold change /veh TNFAIP8L3 (11732012_x_at) / RFU MBOAT4 (11741988_at) / Fold change /veh MBOAT4 (11741988_at) / RFU 11764193_at / Fold change /veh 11764193_at / RFU TMEM53 (11763286_at) / Fold change /veh TMEM53 (11763286_at) / RFU MAGEB2 (11727129_at) / Fold change /veh MAGEB2 (11727129_at) / RFU TMEM200A (11744735_a_at) / Fold change /veh TMEM200A (11744735_a_at) / RFU CCDC152 (11751479_a_at) / Fold change /veh CCDC152 (11751479_a_at) / RFU FAM211A (11726209_a_at) / Fold change /veh FAM211A (11726209_a_at) / RFU RGS16 (11746705_a_at) / Fold change /veh RGS16 (11746705_a_at) / RFU VCAN (11755009_s_at) / Fold change /veh VCAN (11755009_s_at) / RFU RHOB (11743442_s_at) / Fold change /veh RHOB (11743442_s_at) / RFU RGS16 (11720943_a_at) / Fold change /veh RGS16 (11720943_a_at) / RFU RGS16 (11720944_at) / Fold change /veh RGS16 (11720944_at) / RFU, VPS4B / Fold change vs veh, VPS4B / RFU, CREB1 / Fold change vs veh, CREB1 / RFU, DNAJC13 / Fold change vs veh, DNAJC13 / RFU, GNAQ / Fold change vs veh, GNAQ / RFU, CDK5R1 / Fold change vs veh, CDK5R1 / RFU, ZRANB3 / Fold change vs veh, ZRANB3 / RFU, CUL4A / Fold change vs veh, CUL4A / RFU, CCNY / Fold change vs veh, CCNY / RFU, UFL1 / Fold change vs veh, UFL1 / RFU, COG3 / Fold change vs veh, COG3 / RFU, DIAPH2 / Fold change vs veh, DIAPH2 / RFU, SKA2 / Fold change vs veh, SKA2 / RFU, AFF3 / Fold change vs veh, AFF3 / RFU, LMF1 / Fold change vs veh, LMF1 / RFU, IPO11 / Fold change vs veh, IPO11 / RFU, DFFB / Fold change vs veh, DFFB / RFU, FOXP1 / Fold change vs veh, FOXP1 / RFU, CARD8 / Fold change vs veh, CARD8 / RFU, STRN3 / Fold change vs veh, STRN3 / RFU, ADK / Fold change vs veh, ADK / RFU, RASSF2 / Fold change vs veh, RASSF2 / RFU, WIPF1 / Fold change vs veh, WIPF1 / RFU, LARP1B / Fold change vs veh, LARP1B / RFU, RASA1 / Fold change vs veh, RASA1 / RFU, RB1 / Fold change vs veh, RB1 / RFU, PPFIA1 / Fold change vs veh, PPFIA1 / RFU, MAT2A / Fold change vs veh, MAT2A / RFU, CCT5 / Fold change vs veh, CCT5 / RFU, WDR92 / Fold change vs veh, WDR92 / RFU, CUX1 / Fold change vs veh, CUX1 / RFU, TTC7A / Fold change vs veh, TTC7A / RFU, TMEM135 / Fold change vs veh, TMEM135 / RFU, DEPTOR / Fold change vs veh, DEPTOR / RFU, CPM / Fold change vs veh, CPM / RFU, DNAJB6 / Fold change vs veh, DNAJB6 / RFU, CACNA2D3 / Fold change vs veh, CACNA2D3 / RFU, DTX4 / Fold change vs veh, DTX4 / RFU, TFCP2 / Fold change vs veh, TFCP2 / RFU, GMCL1 /// GMCL1P1 / Fold change vs veh, GMCL1 /// GMCL1P1 / RFU, AEBP2 / Fold change vs veh, AEBP2 / RFU, SNHG1 /// SNORD22 /// SNORD25 /// SNORD26 /// SNORD27 /// SNORD28 /// SNORD29 /// SNORD31 / Fold change vs veh, SNHG1 /// SNORD22 /// SNORD25 /// SNORD26 /// SNORD27 /// SNORD28 /// SNORD29 /// SNORD31 / Fold change (Aza/veh), C12orf56 (ProbeSet 11735607_a_at) / Fold change (ACY-1035/veh), C12orf56 (ProbeSet 11735607_a_at) / Fold change (Aza/veh), FGFR1OP (ProbeSet 11751329_s_at) / Fold change (ACY-1035/veh), FGFR1OP (ProbeSet 11751329_s_at) / Fold change (Aza/veh), VPS36 (ProbeSet 11739960_a_at) / Fold change (ACY-1035/veh), VPS36 (ProbeSet 11739960_a_at) / RFU SYPL1 (11715823_x_at) / Fold change /veh SYPL1 (11715823_x_at) / RFU IGFBP7 (11715501_s_at) / Fold change /veh IGFBP7 (11715501_s_at) / RFU REEP3 (11722064_at) / Fold change /veh REEP3 (11722064_at) / RFU IGLL1 (11728026_x_at) / Fold change /veh IGLL1 (11728026_x_at): dose or concentration left out as unconfirmed
Settings: MV-4-11 cells, 48 hours

Nc1ccc(-c2cccs2)cc1NC(=O)c1ccc2c(c1)cc(C1CC1)n2CCN1CCOCC1 [ACY-1035]
RFU VCAN (11755009_s_at): 8.96 RFU
